According to patent US7288659B2, “Acylaminothiazole derivatives, their preparation and therapeutic use” (Sanofi-Aventis, priority 2001, dated 2007):

| melting point [°C] | SMILES |
| --- | --- |
| 144 | C[C@H](NC(=O)Cc1cc(F)cc(F)c1)C(=O)Nc1ncc(-c2cccc(COCC3CCCCC3)c2)s1 [compound 43, (2S)-N-(5-{3-[(cyclohexylmethoxy)methyl]phenyl}-1,3-thiazol-2-yl)-2-{[2-(3,5-difluorophenyl)acetyl]amino}propanamide] |
| 136 | CC(C)OCc1cccc(-c2cnc(NC(=O)[C@H](C)NC(=O)Cc3cc(F)cc(F)c3)s2)c1 [compound 45, (2S)-2-{[2-(3,5-difluorophenyl)acetyl]amino}-N-(5-{3-(isopropoxymethyl)phenyl}-1,3-thiazol-2-yl)propanamide] |
| 166 | C[C@H](NC(=O)Cc1cc(F)cc(F)c1)C(=O)Nc1ncc(-c2ccc(COCC3CCCCC3)cc2)s1 [compound 46, (2S)-N-(5-{4-[(cyclohexylmethoxy)methyl]phenyl}-1,3-thiazol-2-yl)-2-{[2-(3,5-difluorophenyl)acetyl]-amino}propanamide] |
| 77.6 | CCCC[C@H](NC(=O)Cc1cc(F)cc(F)c1)C(=O)Nc1ncc(-c2ccccc2COC2CCCCC2)s1 [compound 47, (2S)-N-(5-{2-[(cyclohexyloxy)methyl]phenyl}-1,3-thiazol-2-yl)-2-{[2-(3,5-difluorophenyl)acetyl]amino}-hexanamide] |
| 60 | C[C@H](NC(=O)Cc1cccc(OC(F)(F)F)c1)C(=O)Nc1ncc(-c2ccccc2COC2CCCCC2)s1 [compound 48, (2S)-N-(5-{2-[(cyclohexyloxy)methyl]phenyl}-1,3-thiazol-2-yl)-2-{[2-(3-trifluoromethoxyphenyl)acetyl]-amino}propanamide] |
| 236 | C[C@H](NC(=O)Cc1cc(F)cc(F)c1)C(=O)Nc1ncc(-c2ccccc2COC2CCCC2)s1 [compound 49, (2S)-N-(5-{2-[(cyclopentyloxy)methyl]phenyl}-1,3-thiazol-2-yl)-2-{[2-(3,5-difluorophenyl)acetyl]amino}-propanamide] |
| 94 | CCC[C@H](NC(=O)Cc1cc(F)cc(F)c1)C(=O)Nc1nc(C)c(-c2ccccc2COC2CCCCC2)s1 [compound 52, (2S)-N-(5-{2-[(cyclohexyloxy)methyl]phenyl}-4-methyl-1,3-thiazol-2-yl)-2-{[2-(3,5-difluorophenyl)-acetyl]amino}pentanamide] |
| 99.4 | CCC[C@H](NC(=O)[C@H](O)c1cc(F)cc(F)c1)C(=O)Nc1nc(C)c(-c2ccccc2COC2CCCCC2)s1 [compound 53, (2S)-N-(5-{2-[(cyclohexyloxy)methyl]phenyl}-4-methyl-1,3-thiazol-2-yl)-2-{[(2R)-2-(3,5-difluorophenyl)-2-hydroxyacetyl]amino}pentanamide] |
| 91.6 | C[C@H](NC(=O)Cc1cc(F)cc(F)c1)C(=O)Nc1ncc(-c2ccccc2CSC2CCCCC2)s1 [compound 54, (2S)-N-(5-{2-[(cyclohexylsulfanyl)methyl]phenyl}-1,3-thiazol-2-yl)-2-{[2-(3,5-difluorophenyl)acetyl]-amino}propanamide] |
| 141 | CCC[C@H](NC(=O)[C@@H](O)c1cc(F)cc(F)c1)C(=O)Nc1ncc(-c2ccccc2COC2CCCCC2)s1 [compound 55, (2S)-N-(5-{2-[(cyclohexyloxy)methyl]phenyl}-1,3-thiazol-2-yl)-2-{[(2S)-2-(3,5-difluorophenyl)-2-hydroxyacetyl]amino}pentanamide] |
| 112 | CCC[C@H](NC(=O)[C@H](O)c1cc(F)cc(F)c1)C(=O)Nc1ncc(-c2ccccc2COC2CCCCC2)s1 [compound 56, (2S)-N-(5-{2-[(cyclohexyloxy)methyl]phenyl}-1,3-thiazol-2-yl)-2-{[(2R)-2-(3,5-difluorophenyl)-2-hydroxyacetyl]amino}pentanamide] |
| 115 | CCC[C@H](NC(=O)[C@@H](O)c1cc(F)cc(F)c1)C(=O)Nc1nc(C)c(-c2ccccc2COC2CCCCC2)s1 [compound 57, (2S)-N-(5-{2-[(cyclohexyloxy)methyl]phenyl}-4-methyl-1,3-thiazol-2-yl)-2-{[(2S)-2-(3,5-difluorophenyl)-2-hydroxyacetyl]amino}pentanamide] |
| 80 | CCC[C@H](NC(=O)Cc1cc(F)cc(F)c1)C(=O)Nc1nc(CC)c(-c2ccccc2COC2CCCCC2)s1 [compound 59, (2S)-N-(5-{2-[(cyclohexyloxy)methyl]phenyl}-4-ethyl-1,3-thiazol-2-yl)-2-{[2-(3,5-difluorophenyl)-acetyl]amino}pentanamide] |
| 77 | CCC[C@H](NC(=O)C(=O)c1cc(F)cc(F)c1)C(=O)Nc1ncc(-c2ccccc2COC2CCCCC2)s1 [compound 60, (2S)-N-(5-{2-[(cyclohexyloxy)methyl]phenyl}-1,3-thiazol-2-yl)-2-{[2-(3,5-difluorophenyl)-2-oxoacetyl]-amino}pentanamide] |
| 70 | CCc1nc(NC(=O)[C@H](C)NC(=O)Cc2cc(F)cc(F)c2)sc1-c1ccccc1COC1CCCCC1 [compound 62, (2S)-N-(5-{2-[(cyclohexyloxy)methyl]phenyl}-4-ethyl-1,3-thiazol-2-yl)-2-{[2-(3,5-difluorophenyl)-acetyl]amino}propanamide] |
| 74 | CCC[C@H](NC(=O)Cc1cc(F)cc(F)c1)C(=O)Nc1nc(C(C)C)c(-c2ccccc2COC2CCCCC2)s1 [compound 63, (2S)-N-(5-{2-[(cyclohexyloxy)methyl]phenyl}-4-isopropyl-1,3-thiazol-2-yl)-2-{[2-(3,5-difluorophenyl)-acetyl]amino}pentanamide] |
| 139 | CCC[C@H](NC(=O)C(F)c1cc(F)cc(F)c1)C(=O)Nc1ncc(-c2ccccc2COC2CCCCC2)s1 (stereo partly drawn) [compound 64, (2S)-N-(5-{2-[(cyclohexyloxy)methyl]phenyl}-1,3-thiazol-2-yl)-2-{[2-(3,5-difluorophenyl)-2-fluoroacetyl]amino}pentanamide] |

More lines, now with the values behind:

| SMILES | melting point [°C] |
| --- | --- |
| Cc1nc(NC(=O)[C@H](C)NC(=O)Cc2cc(F)cc(F)c2)sc1-c1ccccc1COC(C)C [compound 27, (2S)-2-{[2-(3,5-difluorophenyl)acetyl]amino}-N-{5-[2-(isopropoxymethyl)phenyl]-4-methyl-1,3-thiazol-2-yl}propanamide] | 74 |
| Cc1nc(NC(=O)[C@H](C)NC(=O)Cc2cc(F)cc(F)c2)sc1-c1ccccc1COC1CCCC1 [compound 28, (2S)-N-(5-{2-[(cyclopentyloxy)methyl]phenyl}-4-methyl-1,3-thiazol-2-yl)-2-{[2-(3,5-difluorophenyl)-acetyl]amino}propanamide] | 141 |
| C[C@H](NC(=O)Cc1ccc(F)c(F)c1)C(=O)Nc1ncc(-c2ccccc2COC2CCCCC2)s1 [compound 30, (2S)-N-(5-{2-[(cyclohexyloxy)methyl]phenyl}-1,3-thiazol-2-yl)-2-{[2-(3,4-difluorophenyl)acetyl]amino}-propanamide] | 136 |
| CC(C)[C@H](NC(=O)Cc1cc(F)cc(F)c1)C(=O)Nc1ncc(-c2ccccc2COC2CCCCC2)s1 [compound 31, (2S)-N-(5-{2-[(cyclohexyloxy)methyl]phenyl}-1,3-thiazol-2-yl)-2-{[2-(3,5-difluorophenyl)acetyl]amino}-3-methylbutanamide] | 87 |
| CC[C@H](NC(=O)Cc1cc(F)cc(F)c1)C(=O)Nc1ncc(-c2ccccc2COC2CCCCC2)s1 [compound 32, (2S)-N-(5-{2-[(cyclohexyloxy)methyl]phenyl}-1,3-thiazol-2-yl)-2-{[2-(3,5-difluorophenyl)acetyl]amino}-butanamide] | 68 |
| COc1ccc(CC(=O)N[C@@H](C)C(=O)Nc2ncc(-c3ccccc3COC3CCCCC3)s2)cc1 [compound 33, (2S)-N-(5-{2-[(cyclohexyloxy)methyl]phenyl}-1,3-thiazol-2-yl)-2-{[2-(4-methoxyphenyl)acetyl]amino}-propanamide] | 74 |
| COc1cccc(CC(=O)N[C@@H](C)C(=O)Nc2ncc(-c3ccccc3COC3CCCCC3)s2)c1 [compound 34, (2S)-N-(5-{2-[(cyclohexyloxy)methyl]phenyl}-1,3-thiazol-2-yl)-2-{[2-(3-methoxyphenyl)acetyl]amino}-propanamide] | 94 |
| COc1cc(CC(=O)N[C@@H](C)C(=O)Nc2ncc(-c3ccccc3COC3CCCCC3)s2)cc(OC)c1 [compound 35, (2S)-N-(5-{2-[(cyclohexyloxy)methyl]phenyl}-1,3-thiazol-2-yl)-2-{[2-(3,5-dimethoxyphenyl)acetyl]amino}-propanamide] | 73 |
| CC(C)C[C@H](NC(=O)Cc1cc(F)cc(F)c1)C(=O)Nc1ncc(-c2ccccc2COC2CCCCC2)s1 [compound 36, (2S)-N-(5-{2-[(cyclohexyloxy)methyl]phenyl}-1,3-thiazol-2-yl)-2-{[2-(3,5-difluorophenyl)acetyl]amino}-4-methylpentanamide] | 67 |
| CC(C)(C)[C@H](NC(=O)Cc1cc(F)cc(F)c1)C(=O)Nc1ncc(-c2ccccc2COC2CCCCC2)s1 [compound 37, (2S)-N-(5-{2-[(cyclohexyloxy)methyl]phenyl}-1,3-thiazol-2-yl)-2-{[2-(3,5-difluorophenyl)acetyl]amino}-3,3-dimethylbutanamide] | 73 |
| C[C@H](NC(=O)Cc1cc(F)cc(F)c1)C(=O)Nc1ncc(-c2ccc(COC3CCCCC3)cc2)s1 [compound 39, (2S)-N-(5-{4-[(cyclohexyloxy)methyl]phenyl}-1,3-thiazol-2-yl)-2-{[2-(3,5-difluorophenyl)acetyl]amino}-propanamide] | 155 |
| CCOCc1ccccc1-c1cnc(NC(=O)[C@H](C)NC(=O)Cc2cc(F)cc(F)c2)s1 [compound 41, (2S)-2-{[2-(3,5-difluorophenyl)acetyl]amino)-N-(5-[2-(ethoxymethyl)phenyl]-1,3-thiazol-2-yl}propanamide] | 173 |
| CCC[C@H](NC(=O)Cc1cc(F)cc(F)c1)C(=O)Nc1ncc(-c2ccccc2COC2CCCCC2)s1 [compound 42, (2S)-N-(5-{2-[(cyclohexyloxy)methyl]phenyl}-1,3-thiazol-2-yl)-2-{[2-(3,5-difluorophenyl)acetyl]amino}-pentanamide] | 134 |
